Measured values as given in patent US12012467B2, “Small molecule DCN1 inhibitors and therapeutic methods using the same” (THE REGENTS OF THE UNIVERSITY OF MICHIGAN, priority 2017, dated 2024).
Read-outs that look alike come from different tables or passages of the source. Numbered stars: 1 amine (or outer) side, 2 acyl side, 3 side chain; on linkers, the order of the positions; unused ones are H or OH. Square brackets hold non-standard residues; d marks the D form. Peptide text beside a SMILES is read from it. * marks the point of attachment. Ala(6-iPr-benzothiazol-2-yl) = CC(C)c1ccc2nc(C[C@H](N)C(=O)O)sc2c1; Abu(4,4,4-F3) = N[C@@H](CC(F)(F)F)C(=O)O; 2Nal = N[C@@H](Cc1ccc2ccccc2c1)C(=O)O; Lac = C[C@H](O)C(=O)O; CO = O=C([*:1])[*:2]; Propionyl = CCC(=O)*; Moc = COC(=O)*

Biological target: DCN1 (Homo sapiens (Human), UniProt Q96GG9)
Test: Competitive FP binding assay
Procedure: Competitive FP Binding Assay
The Fluorescence Polarization (FP) competitive binding assays were performed to accurately determine the binding affinities of our DCN1 inhibitors. […] Serial dilutions of proteins were mixed with 46 to a final volume of 200 μl in the assay buffer (100 mM phosphate buffer, pH=6.5, with 0.02% Tween-20 and 2% DMSO). Final probe concentration was 5 nM for both assays. Plates were incubated at room temperature for 30 minutes with gentle shaking to assure equilibrium.
Pure proteins were derived from the same expression and purification protocols. Plasmids were transformed into Rosetta2 cells, the cells were grown in Terrific Broth at 37° C. to an O.D.600>1.0 and induced with 0.4 mM Isopropyl (3-D-1-thiogalactopyranoside overnight at 20° C. The pelleted cells were resuspended in lysis buffer containing 25 mM Tris-HCl, pH 7.5, 200 mM NaCl and protease inhibitors, sonicated and centrifuged at 34,000×g for 45 minutes to remove debris. Cleared lysate was incubated with Ni-NTA resin (Qiagen) prewashed with lysis buffer, for 1 hr at 4° C. The matrix was loaded into a column then washed with 25 mM Tris-HCl, pH 7.5, 200 mM NaCl and 10 mM imidazole. Protein was eluted with 25 mM Tris-HCl, pH 7.5, 200 mM NaCl and 300 mM imidazole, concentrated and applied to a Superdex 75 (GE Healthcare) column pre-equilibrated with 25 mM Tris pH 7.5, 200 mM NaCl and 1 mM DTT. For DCN2-5, the N-terminal His6 tag was removed prior to gel filtration. Tag removal was achieved through incubation with TEV protease during overnight dialysis against 25 mM Tris pH 7.5, 200 mM NaCl and 1 mM DTT and a second Ni-NTA column. DCN2-5 proteins were stored at −80° C. in 1 mg/mL fractions containing 5% glycerol. The uncleaved DCN1 protein was stored at −80° C. without glycerol.

[1] = bounds given in μM, read-out: Binding affinity to DCN1 (IC50)
[2] = read-out: Binding affinity to DCN1 (IC50 (nM))

DCN1, sequence (Q96GG9 58-259): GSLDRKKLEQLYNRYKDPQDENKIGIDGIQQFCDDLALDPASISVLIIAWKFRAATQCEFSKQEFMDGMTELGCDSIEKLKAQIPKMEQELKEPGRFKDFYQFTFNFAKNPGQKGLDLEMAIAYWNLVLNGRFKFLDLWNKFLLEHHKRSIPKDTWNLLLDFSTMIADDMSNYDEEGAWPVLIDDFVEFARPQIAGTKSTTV

IC50 [1] [µM]	IC50 [2] [µM]	SMILES
> 10		CCC(=O)N[C@@H](Cc1nc2ccc(Cl)cc2s1)C(=O)N[C@@H](CN)Cc1ccccc1 (stereo in doubt) [Example 88]
> 10		CCC(=O)N[C@H](CNC(=O)[C@H]1CCCCN1)Cc1nc2ccc(C(C)C)cc2s1 [Example 270]
	1.83	CCC(=O)N[C@H](CNC(=O)c1ccccc1)Cc1nc2ccc(Cl)cc2s1 [Example 252]
	0.157	CCC(=O)N[C@@H](Cc1cn2cc(Cl)ccc2n1)C(=O)N[C@H](C(=O)N[C@@H](CCCCN)C(=O)N[C@@H]1CCOc2ccccc21)C1CCOCC1 [Example 208]
	0.875	CCC(=O)N[C@H](CNC(=O)C1(CN)CCCCC1)Cc1nc2ccc(C(C)C)cc2s1 [Example 117]
> 3		CCC(=O)N[C@@H](Cc1nc2c(F)cccc2s1)C(=O)N[C@H](C(=O)N[C@@H](CCCCN)C(=O)NC(c1ccccc1)c1ccccc1)C1CCCC1 [Example 26]
	0.244	CCC(=O)N[C@@H](Cc1nc2ccc(Cl)cc2s1)C(=O)N[C@H](CNC(=O)CCN1CCOCC1)Cc1ccccc1 [Example 92]
> 10		CC[C@H](C)[C@H](NC(=O)[C@H](Cc1ccc2ccccc2c1)NC(=O)[C@H](C)O)C(=O)N[C@@H](CCCCN)C(=O)N[C@@H](CC(C)C)C(N)=O [Example 168] (H-[Lac][2Nal]IKL-NH2)
	0.154	CCC(=O)N[C@@H](Cc1nc2ccc(C(C)C)cc2s1)C(=O)N[C@@H](CC(F)(F)F)C(=O)N[C@@H](CCCCN)C(=O)N[C@@H](CC(C)C)C(N)=O [Example 284] (Propionyl-[Ala(6-iPr-benzothiazol-2-yl)][Abu(4,4,4-F3)]KL-NH2)
	0.354	CCC(=O)N[C@@H](Cc1ccc2ccccc2c1)C(=O)N[C@H](C(=O)N[C@@H](CCCCNC1CCN(C)CC1)C(=O)NC(c1ccccc1)c1ccccc1)C1CCCC1 [Example 147]
	0.651	CCC(=O)N[C@@H](Cc1ccc2ccccc2c1)C(=O)N[C@H](C(=O)N[C@@H](CCCCN)C(=O)N[C@@H]1CCOc2ccccc21)[C@@H](C)CC [Example 17]
	0.095 ± 0.0158	CCC(=O)N[C@@H](Cc1nc2ccc(C(C)C)cc2s1)C(=O)N[C@H](CN)[C@@H](C)CC [Example 47, (S)—N-((2S,3S)-1-amino-3-methylpentan-2-yl)-3-(6-isopropylbenzo[d]thiazol-2-yl)-2-propionamidopropanamide]
> 10		CCC(=O)N[C@@H](Cc1nc2ccc(Cl)cc2s1)C(=O)N[C@@H](C[C@H]1CC[C@H](CNC(=O)COCCOCCOCCNC(=O)CCCC[C@@H]2SC[C@@H]3NC(=O)N[C@@H]32)CC1)C(=O)N[C@@H](CCCCN(C)C)C(=O)N[C@@H]1CCOc2ccccc21 [DI-427biotin (NC)]
	0.0936	CCC(=O)N[C@@H](Cc1nc2ccc(C(C)C)cc2s1)C(=O)N[C@H](CN(C)C)C1CCCCC1 [Example 79, (S)—N—((S)-1-cyclohexyl-2-(dimethylamino)ethyl)-3-(6-isopropylbenzo[d]thiazol-2-yl)-2-propionamidopropanamide]
	1.34	CCC(=O)N[C@H](CNC(=O)C1CCCCC1)Cc1nc2ccc(Cl)cc2s1 [Example 254]
	0.217	CC[C@H](C)[C@H](NC(=O)[C@H](Cc1nc2ccc(C(C)C)cc2s1)NC(=O)OC)C(=O)N[C@@H](CCCCN)C(=O)N[C@@H](CC(C)C)C(N)=O [Example 279] (Moc-[Ala(6-iPr-benzothiazol-2-yl)]IKL-NH2)

IC50 [1] [µM]	IC50 [2] [µM]	SMILES
	2.2	CCC(=O)N[C@H](CNC(=O)C1(N)CCCCCCC1)Cc1nc2ccc(C(C)C)cc2s1 [Example 116]
	0.12	CCC(=O)N[C@@H](Cc1nc2ccc(Cl)cc2s1)C(=O)N[C@H](C(=O)N[C@@H](CCCCN)C(=O)N[C@@H](c1ccccc1)c1cn(CCO)nn1)C1CCOCC1 [249 & 250]
	0.413	CCC(=O)N[C@@H](Cc1nc2ccc(F)cc2s1)C(=O)N[C@H](C(=O)N[C@@H](CCCCN)C(=O)NC(c1ccccc1)c1ccccc1)C1CCCC1 [Example 28]
> 3		CCC(=O)N[C@@H](Cc1ccc2ccccc2c1)C(=O)N[C@H](C(=O)N[C@@H](CCCCN)C(=O)N[C@H]1CNCc2ccccc21)C1CCCC1 [Example 159]
> 10		CN(C)CCCC[C@H](NC(=O)[C@@H](NC(=O)[C@@H](N)Cc1nc2ccc(Cl)cc2s1)C1CCCC1)C(=O)N[C@@H]1CCOc2ccccc21 [Example 205]
	0.0812	CCC(=O)N[C@@H](Cc1cn2cc(C(C)C)ccc2n1)C(=O)N[C@H](C(=O)N[C@@H](CCCCN)C(=O)N[C@@H]1CCOc2ccccc21)C1CCOCC1 [210 & 211]
	0.12	CCC(=O)N[C@@H](Cc1nc2ccc(CC)cc2o1)C(=O)N[C@H](C(=O)N[C@@H](CCCCN)C(=O)N[C@@H]1CCOc2ccccc21)C1CCCC1 [Example 195]
	0.491	CCC(=O)N[C@@H](Cc1nc2ccc(C)cc2s1)C(=O)N[C@H](CN)[C@@H](C)CC [Example 214]
> 5		CCC(=O)N[C@@H](Cc1nc2ccccc2n1C)C(=O)N[C@H](C(=O)N[C@@H](CCCCN)C(=O)NC(c1ccccc1)c1ccccc1)[C@@H](C)CC [Example 136]
	0.0581	CCC(=O)N[C@@H](Cc1nc2ccc(C)cc2s1)C(=O)N[C@H](C(=O)N[C@@H](CCCCN)C(=O)NC(c1ccccc1)c1ccccc1)C1CCCC1 [Example 173]
	0.0682	CC[C@H](C)[C@H](NC(=O)[C@H](Cc1nc2ccc(C(C)C)cc2s1)NC(=O)NC)C(=O)N[C@@H](CCCCN)C(=O)N[C@@H](CC(C)C)C(N)=O [Example 278] ({NHMe-CO}-[Ala(6-iPr-benzothiazol-2-yl)]IKL-NH2)
	1.28	CCC(=O)N[C@@H](Cc1nc(C)c(-c2cccc(F)c2)s1)C(=O)N[C@H](CN)Cc1ccccc1 [Example 234]
	0.913	CCC(=O)N[C@@H](Cc1nc2ccc(Cl)cc2s1)C(=O)N[C@H](C(=O)N[C@@H](CCCCN)C(=O)NCc1ccccn1)C1CCOCC1 [Example 241]
	1.75	CCC(=O)N[C@@H](Cc1ccc2ccccc2c1)C(=O)N[C@H](C(=O)N[C@@H](CCCCN)C(=O)NC(c1ccc(F)cc1)c1ccc(F)cc1)C1CCCC1 [Example 138]
	0.575	CCC(=O)N[C@@H](Cc1nc2ccc(Cl)cc2s1)C(=O)N[C@H](C(=O)NCCCCCN(C)C)C1CCCC1 [Example 224]

SMILES	IC50 [1] [µM]	IC50 [2] [µM]
CCC(=O)N[C@@H](Cc1ccc2ccccc2c1)C(=O)N[C@H](C(=O)N[C@@H](CCCCN)C(=O)NC(c1ccccc1)c1ccccc1)C1CCCC1 [Example 19]		0.27
CCC(=O)N[C@@H](Cc1ccc2ccccc2c1)C(=O)N[C@@H](CC1CCCCC1)C(=O)N[C@@H](CCCCN)C(=O)NC(c1ccccc1)c1ccccc1 [Example 21]		0.29
CC[C@H](C)[C@H](NC(=O)[C@H](Cc1nc2cc(Cl)ccc2s1)NC(C)=O)C(=O)N[C@@H](CCCCN)C(=O)N[C@@H](CC(C)C)C(N)=O [Example 3, (S)-2-((2S,3 S)-2-((S)-2-acetamido-3-(5-chlorobenzo[d]thiazol-2-yl)propanamido)-3-methylpentanamido)-6-amino-N—((S)-1-amino-4-methyl-1-oxopentan-2-yl)hexanamide]		0.0092 ± 0.0014
CCC(=O)N[C@@H](Cc1nc2ccc(C(C)C)cc2s1)C(=O)N[C@H](CN)Cc1ccccc1 [Example 55, (S)—N—((S)-1-amino-3-phenylpropan-2-yl)-3-(6-isopropylbenzo[d]thiazol-2-yl)-2-propionamidopropanamide]		0.179
CCC(=O)N[C@@H](Cc1ccc2ccccc2c1)C(=O)N[C@@H](CC(C)(C)C)C(=O)N[C@@H](CCCCN)C(=O)NC(c1ccccc1)c1ccccc1 [Example 22]		0.361
